From ChEMBL document CHEMBL1137582, “Quinazoline and benzimidazole MCH-1R antagonists” (Bioorg Med Chem Lett, 2007)
Blank lines part the entries; values can stand above or below the compound they belong to. Activity calls are given as the source filed them. The calls are words filed in the database; no cut-off is given here.

How the values were obtained:
[1] = biological target: T1, Melanin-concentrating hormone receptor 1 (Homo sapiens, UniProt Q99705); test: Displacement of 125I-[Phe13,Tyr19]-MCH from MCH-R1 expressing cell membranes
T1 sequence (Q99705 whole entry): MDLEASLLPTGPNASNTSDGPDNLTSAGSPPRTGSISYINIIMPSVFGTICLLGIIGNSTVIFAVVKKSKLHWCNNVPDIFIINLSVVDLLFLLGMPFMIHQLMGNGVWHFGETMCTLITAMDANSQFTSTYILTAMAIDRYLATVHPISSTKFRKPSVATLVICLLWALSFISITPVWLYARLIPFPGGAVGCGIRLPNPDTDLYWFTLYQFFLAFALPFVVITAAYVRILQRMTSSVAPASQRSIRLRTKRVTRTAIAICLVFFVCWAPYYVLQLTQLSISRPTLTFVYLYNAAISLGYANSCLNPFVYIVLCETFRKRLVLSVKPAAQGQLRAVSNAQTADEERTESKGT

D(2) dopamine receptor [2] = biological target: T2, D(2) dopamine receptor (Homo sapiens, UniProt P14416); test: Inhibition of D2(L)
T2 sequence (P14416 whole entry): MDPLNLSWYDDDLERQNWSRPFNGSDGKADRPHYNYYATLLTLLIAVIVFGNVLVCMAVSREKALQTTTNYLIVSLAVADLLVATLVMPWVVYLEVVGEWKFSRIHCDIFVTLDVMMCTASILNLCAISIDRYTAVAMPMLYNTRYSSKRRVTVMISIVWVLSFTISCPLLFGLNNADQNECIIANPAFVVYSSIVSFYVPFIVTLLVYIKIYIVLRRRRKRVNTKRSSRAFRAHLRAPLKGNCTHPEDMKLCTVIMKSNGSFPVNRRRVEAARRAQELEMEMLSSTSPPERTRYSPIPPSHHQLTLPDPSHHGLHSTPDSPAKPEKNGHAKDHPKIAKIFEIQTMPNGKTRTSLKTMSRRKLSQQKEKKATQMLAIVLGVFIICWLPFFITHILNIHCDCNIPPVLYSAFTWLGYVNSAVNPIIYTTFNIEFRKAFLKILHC

[3] = biological target: 5-hydroxytryptamine receptor 2A (Homo sapiens) (UniProt P28223); test: Inhibition of 5HT2A at 10uM
5-hydroxytryptamine receptor 2A (Homo sapiens), sequence (P28223 whole entry): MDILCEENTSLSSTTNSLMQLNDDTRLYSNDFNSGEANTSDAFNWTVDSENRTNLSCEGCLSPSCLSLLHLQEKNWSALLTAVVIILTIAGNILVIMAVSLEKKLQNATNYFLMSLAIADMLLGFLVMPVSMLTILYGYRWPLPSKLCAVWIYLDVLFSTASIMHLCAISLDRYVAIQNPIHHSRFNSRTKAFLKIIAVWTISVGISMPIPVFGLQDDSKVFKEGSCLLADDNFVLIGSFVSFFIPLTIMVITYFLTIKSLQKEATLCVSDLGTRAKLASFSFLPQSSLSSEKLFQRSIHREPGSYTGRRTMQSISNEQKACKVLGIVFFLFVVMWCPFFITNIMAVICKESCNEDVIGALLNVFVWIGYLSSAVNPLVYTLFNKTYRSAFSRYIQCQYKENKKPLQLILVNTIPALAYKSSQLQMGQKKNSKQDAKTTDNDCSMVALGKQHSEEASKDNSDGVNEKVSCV

[4] = biological target: T3, 5-hydroxytryptamine receptor 2C (Homo sapiens) (UniProt P28335); test: Inhibition of 5HT2C at 10uM
T3 sequence (whole entry): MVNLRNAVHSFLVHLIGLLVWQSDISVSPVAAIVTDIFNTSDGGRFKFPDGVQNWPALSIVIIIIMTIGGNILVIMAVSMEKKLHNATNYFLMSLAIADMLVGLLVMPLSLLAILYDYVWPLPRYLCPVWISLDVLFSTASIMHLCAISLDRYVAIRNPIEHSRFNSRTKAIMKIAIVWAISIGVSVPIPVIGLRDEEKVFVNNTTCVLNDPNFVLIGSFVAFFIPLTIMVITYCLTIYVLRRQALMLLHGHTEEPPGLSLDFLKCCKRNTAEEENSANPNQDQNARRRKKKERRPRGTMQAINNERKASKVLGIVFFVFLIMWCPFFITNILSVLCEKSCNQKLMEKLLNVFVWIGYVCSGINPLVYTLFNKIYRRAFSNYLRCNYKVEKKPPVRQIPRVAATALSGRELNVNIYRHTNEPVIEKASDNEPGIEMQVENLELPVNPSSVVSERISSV

[5] = biological target: Voltage-gated inwardly rectifying potassium channel KCNH2 (Homo sapiens, UniProt Q12809); test: Inhibition of hERG in patch-clamp assay; format: toxicity
[6] = biological target: 5-hydroxytryptamine receptor 2B (Homo sapiens, UniProt P41595); test: Inhibition of 5HT2B
5-hydroxytryptamine receptor 2B, sequence (P41595 whole entry): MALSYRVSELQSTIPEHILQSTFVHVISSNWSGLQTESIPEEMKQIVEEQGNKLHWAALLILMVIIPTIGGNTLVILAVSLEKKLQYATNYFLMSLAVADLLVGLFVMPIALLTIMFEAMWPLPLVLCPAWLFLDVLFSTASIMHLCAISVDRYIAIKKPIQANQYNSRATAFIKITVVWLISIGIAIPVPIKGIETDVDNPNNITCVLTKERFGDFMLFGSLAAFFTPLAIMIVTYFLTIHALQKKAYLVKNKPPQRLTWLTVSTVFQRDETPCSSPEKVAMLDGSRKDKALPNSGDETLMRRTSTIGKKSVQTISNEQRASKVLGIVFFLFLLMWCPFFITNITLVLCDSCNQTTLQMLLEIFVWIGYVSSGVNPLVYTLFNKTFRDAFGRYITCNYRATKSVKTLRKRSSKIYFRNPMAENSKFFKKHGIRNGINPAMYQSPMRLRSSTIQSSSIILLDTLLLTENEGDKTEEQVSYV

Cytochrome P450 2D6 = Cytochrome P450 2D6 (Homo sapiens, UniProt P10635); test: Inhibition of human CYP2D6 at 1uM; format: ADME
Cytochrome P450 2D6, sequence (P10635 whole entry): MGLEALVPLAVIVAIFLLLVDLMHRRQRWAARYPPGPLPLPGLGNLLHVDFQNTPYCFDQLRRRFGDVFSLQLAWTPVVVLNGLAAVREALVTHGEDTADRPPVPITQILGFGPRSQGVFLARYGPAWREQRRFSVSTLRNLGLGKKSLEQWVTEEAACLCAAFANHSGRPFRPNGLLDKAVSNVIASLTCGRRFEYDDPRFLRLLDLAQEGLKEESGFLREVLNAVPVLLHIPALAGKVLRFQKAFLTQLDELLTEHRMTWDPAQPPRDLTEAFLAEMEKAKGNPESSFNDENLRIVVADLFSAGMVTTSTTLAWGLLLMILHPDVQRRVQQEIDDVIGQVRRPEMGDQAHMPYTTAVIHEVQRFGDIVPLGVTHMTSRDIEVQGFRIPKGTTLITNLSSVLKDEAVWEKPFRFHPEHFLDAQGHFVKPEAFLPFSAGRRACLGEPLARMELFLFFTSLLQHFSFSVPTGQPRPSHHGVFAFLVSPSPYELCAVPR

Cytochrome P450 3A4 = Cytochrome P450 3A4 (Homo sapiens, UniProt P08684); test: Inhibition of human CYP3A4 at 1uM; format: ADME
Cytochrome P450 3A4, sequence (P08684 whole entry): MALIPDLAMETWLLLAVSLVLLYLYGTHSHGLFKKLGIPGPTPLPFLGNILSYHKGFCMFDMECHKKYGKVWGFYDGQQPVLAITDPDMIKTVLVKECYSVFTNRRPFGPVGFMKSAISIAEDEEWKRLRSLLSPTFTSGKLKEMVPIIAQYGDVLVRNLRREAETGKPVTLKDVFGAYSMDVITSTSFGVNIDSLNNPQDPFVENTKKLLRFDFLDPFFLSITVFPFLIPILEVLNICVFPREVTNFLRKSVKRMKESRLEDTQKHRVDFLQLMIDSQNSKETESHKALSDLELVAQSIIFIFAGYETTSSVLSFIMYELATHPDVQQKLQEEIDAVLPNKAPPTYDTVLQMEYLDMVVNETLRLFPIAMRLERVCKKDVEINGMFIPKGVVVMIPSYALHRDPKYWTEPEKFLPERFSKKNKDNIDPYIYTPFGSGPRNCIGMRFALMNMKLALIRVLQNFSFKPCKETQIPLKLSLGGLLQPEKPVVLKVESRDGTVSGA

Cytochrome P450 1A2 = biological target: T4, Cytochrome P450 1A2 (Homo sapiens, UniProt P05177); test: Inhibition of human CYP1A2 at 1uM; format: ADME
T4 sequence (P05177 whole entry): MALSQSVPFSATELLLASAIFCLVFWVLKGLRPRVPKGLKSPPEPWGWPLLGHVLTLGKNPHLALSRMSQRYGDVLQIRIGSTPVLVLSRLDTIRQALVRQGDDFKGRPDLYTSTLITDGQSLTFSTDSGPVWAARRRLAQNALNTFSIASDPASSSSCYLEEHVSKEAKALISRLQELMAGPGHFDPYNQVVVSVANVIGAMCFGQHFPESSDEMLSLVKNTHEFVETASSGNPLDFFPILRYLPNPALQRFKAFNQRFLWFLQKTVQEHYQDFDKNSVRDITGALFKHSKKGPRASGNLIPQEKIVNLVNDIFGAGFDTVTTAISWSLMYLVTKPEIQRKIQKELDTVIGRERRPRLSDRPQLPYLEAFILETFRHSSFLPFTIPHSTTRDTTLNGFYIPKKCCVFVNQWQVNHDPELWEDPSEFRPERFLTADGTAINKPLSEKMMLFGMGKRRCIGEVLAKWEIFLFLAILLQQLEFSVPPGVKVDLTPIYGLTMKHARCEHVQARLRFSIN

Cytochrome P450 2C9 = Cytochrome P450 2C9 (Homo sapiens, UniProt P11712); test: Inhibition of human CYP2C9 at 1uM; format: ADME
Cytochrome P450 2C9, sequence (P11712 whole entry): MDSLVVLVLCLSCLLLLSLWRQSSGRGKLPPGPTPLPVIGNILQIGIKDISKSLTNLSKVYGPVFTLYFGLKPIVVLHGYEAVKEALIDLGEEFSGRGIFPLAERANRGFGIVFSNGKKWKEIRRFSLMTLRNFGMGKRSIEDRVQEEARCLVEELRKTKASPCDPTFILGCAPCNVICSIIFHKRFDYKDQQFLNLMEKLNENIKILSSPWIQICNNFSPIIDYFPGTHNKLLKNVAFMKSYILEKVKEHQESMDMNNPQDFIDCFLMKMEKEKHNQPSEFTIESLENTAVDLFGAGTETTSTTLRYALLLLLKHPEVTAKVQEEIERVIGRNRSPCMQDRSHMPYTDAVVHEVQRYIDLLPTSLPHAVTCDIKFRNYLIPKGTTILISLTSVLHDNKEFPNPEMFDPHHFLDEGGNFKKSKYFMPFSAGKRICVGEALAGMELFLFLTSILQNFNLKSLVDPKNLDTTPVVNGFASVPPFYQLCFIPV

Cytochrome P450 2C19 = Cytochrome P450 2C19 (Homo sapiens, UniProt P33261); test: Inhibition of human CYP2C19 at 1uM; format: ADME
Cytochrome P450 2C19, sequence (P33261 whole entry): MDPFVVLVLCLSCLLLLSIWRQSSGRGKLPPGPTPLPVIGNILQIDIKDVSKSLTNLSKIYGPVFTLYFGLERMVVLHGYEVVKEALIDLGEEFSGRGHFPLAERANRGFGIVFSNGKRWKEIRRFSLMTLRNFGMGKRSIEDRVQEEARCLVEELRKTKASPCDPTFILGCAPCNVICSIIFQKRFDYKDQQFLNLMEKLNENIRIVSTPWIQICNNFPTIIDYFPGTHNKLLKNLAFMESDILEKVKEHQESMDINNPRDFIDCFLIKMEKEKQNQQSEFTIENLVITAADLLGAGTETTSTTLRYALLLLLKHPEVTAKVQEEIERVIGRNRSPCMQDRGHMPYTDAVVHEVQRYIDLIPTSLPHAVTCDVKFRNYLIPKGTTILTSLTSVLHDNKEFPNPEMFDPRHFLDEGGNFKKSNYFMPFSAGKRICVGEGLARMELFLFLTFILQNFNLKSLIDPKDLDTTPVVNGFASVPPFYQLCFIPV

[7] = biological target: T1, Melanin-concentrating hormone receptor 1; test: Inhibition of MCH-mediated calcium influx into MCH-R1 expressing cells; format: functional
[8] = biological target: T5, Melanin-concentrating hormone receptor 2 (Homo sapiens, UniProt Q969V1); test: Inhibition of MCH-R2 at 10uM
T5 sequence (Q969V1 whole entry): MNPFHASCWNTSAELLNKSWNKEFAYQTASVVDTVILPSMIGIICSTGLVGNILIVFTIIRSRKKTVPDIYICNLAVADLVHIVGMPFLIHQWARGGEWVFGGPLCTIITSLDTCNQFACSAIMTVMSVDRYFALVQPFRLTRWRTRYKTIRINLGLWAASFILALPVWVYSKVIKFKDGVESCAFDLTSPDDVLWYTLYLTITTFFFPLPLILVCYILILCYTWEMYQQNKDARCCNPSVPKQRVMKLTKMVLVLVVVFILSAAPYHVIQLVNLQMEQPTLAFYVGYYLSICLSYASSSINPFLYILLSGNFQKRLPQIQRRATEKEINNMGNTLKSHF

[9] = biological target: Adrenergic receptor alpha-1 (Homo sapiens) (UniProt P35348+P25100+P35368); test: Inhibition of adrenergic alpha-1 receptor at 10uM; format: protein assay
[10] = biological target: T1, Melanin-concentrating hormone receptor 1; test: Inhibition of 125I-[Phe13,Tyr19]-MCH binding to MCH-R1 expressing cell membranes at 1uM
D(2) dopamine receptor [11] = biological target: T2, D(2) dopamine receptor; test: Inhibition of D2(L) at 10uM
[12] = biological target: T5, Melanin-concentrating hormone receptor 2; test: Inhibition of MCH-R2
[13] = Solubility at pH7.4; format: physicochemical; conditions: buffer, pH 7.4
[14] = biological target: T6, Adrenergic receptor alpha-1 (Homo sapiens, UniProt P35348+P25100+P35368); test: Inhibition of adrenergic alpha-1 receptor; format: protein assay
T6 sequence (P35348 whole entry): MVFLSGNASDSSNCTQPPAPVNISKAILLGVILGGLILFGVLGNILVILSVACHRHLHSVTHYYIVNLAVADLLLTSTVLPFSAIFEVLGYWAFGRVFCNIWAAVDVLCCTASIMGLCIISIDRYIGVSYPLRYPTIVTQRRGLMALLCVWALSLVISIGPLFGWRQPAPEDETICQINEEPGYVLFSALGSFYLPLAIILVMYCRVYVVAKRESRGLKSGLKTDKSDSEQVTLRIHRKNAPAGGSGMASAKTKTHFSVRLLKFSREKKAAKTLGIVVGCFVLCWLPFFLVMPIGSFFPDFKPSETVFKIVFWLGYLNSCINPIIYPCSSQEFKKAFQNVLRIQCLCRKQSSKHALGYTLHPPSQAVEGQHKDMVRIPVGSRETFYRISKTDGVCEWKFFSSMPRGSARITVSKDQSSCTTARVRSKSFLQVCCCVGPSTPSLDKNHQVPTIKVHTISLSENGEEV
T6 sequence (P25100 whole entry): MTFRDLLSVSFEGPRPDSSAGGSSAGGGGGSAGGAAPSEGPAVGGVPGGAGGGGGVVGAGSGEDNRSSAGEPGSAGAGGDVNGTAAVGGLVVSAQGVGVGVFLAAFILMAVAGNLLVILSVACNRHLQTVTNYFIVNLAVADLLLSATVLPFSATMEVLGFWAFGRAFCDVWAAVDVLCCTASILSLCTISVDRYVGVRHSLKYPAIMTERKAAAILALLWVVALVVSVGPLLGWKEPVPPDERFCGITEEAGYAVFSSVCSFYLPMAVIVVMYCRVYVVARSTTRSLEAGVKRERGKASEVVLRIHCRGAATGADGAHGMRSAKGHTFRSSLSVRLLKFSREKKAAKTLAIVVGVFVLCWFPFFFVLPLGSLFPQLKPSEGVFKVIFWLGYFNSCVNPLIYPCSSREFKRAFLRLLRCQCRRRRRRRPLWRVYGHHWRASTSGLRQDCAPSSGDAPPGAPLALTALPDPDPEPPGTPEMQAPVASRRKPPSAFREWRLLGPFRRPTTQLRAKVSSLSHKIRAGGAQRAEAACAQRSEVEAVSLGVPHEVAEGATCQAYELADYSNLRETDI
T6 sequence (P35368 whole entry): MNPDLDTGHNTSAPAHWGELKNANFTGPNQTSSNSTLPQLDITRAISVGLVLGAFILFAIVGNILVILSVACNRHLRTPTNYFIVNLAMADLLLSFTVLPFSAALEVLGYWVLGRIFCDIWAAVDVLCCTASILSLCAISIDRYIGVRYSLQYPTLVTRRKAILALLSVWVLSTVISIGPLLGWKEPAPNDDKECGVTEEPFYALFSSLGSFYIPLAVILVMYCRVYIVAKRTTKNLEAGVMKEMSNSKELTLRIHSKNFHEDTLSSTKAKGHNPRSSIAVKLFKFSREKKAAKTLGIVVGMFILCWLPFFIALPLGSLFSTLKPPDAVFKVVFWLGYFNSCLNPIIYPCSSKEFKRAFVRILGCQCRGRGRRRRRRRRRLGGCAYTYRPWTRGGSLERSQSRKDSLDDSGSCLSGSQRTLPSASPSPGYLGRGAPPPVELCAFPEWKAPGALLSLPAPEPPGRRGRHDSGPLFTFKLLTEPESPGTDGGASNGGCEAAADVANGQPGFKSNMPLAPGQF

SMILES: Cc1nc(N2CCCC2)nc2ccc(NC(=O)COc3ccc(Cl)cc3)cc12
IC50 (D(2) dopamine receptor [2]): > 100000 nM | inhibition [3]: 0% | inhibition [4]: 39% | IC50 [5]: 10000 nM | IC50 [6]: 1900 nM | Inhibition (Cytochrome P450 2D6): Not Active | Inhibition (Cytochrome P450 3A4): Not Active | Inhibition (Cytochrome P450 1A2): Not Active | Inhibition (Cytochrome P450 2C9): Not Active | Inhibition (Cytochrome P450 2C19): Not Active | IC50 [1]: 250 nM | IC50 [7]: 58 nM | inhibition [8]: 2% | inhibition [9]: 28%

SMILES: Cc1nc(N(C)CCN(C)C)nc2ccc(NC(=O)COc3ccc(C(F)(F)F)cc3)cc12
IC50 [1]: 260 nM | IC50 [7]: 164 nM

SMILES: Cc1nc(N2CCCC2)nc2ccc(NC(=O)COc3ccccc3Cl)cc12
IC50 [1]: 1930 nM

SMILES: Cc1nc(N2CCCC2)nc2ccc(NC(=O)COc3cccc(Cl)c3)cc12
Inhibition [10]: 7%

SMILES: O=C(COc1ccc(C(F)(F)F)cc1)Nc1ccc2nc(N3CCOCC3)cnc2c1
inhibition [10]: inactive

SMILES: COc1ccc(OCC(=O)Nc2ccc3nc(N4CCCC4)nc(C)c3c2)cc1
IC50 [1]: 390 nM | IC50 [7]: 41 nM

SMILES: O=C(COc1ccc(Cl)cc1)Nc1ccc2nc(N3CCOCC3)cnc2c1
inhibition [10]: inactive

SMILES: O=C(COc1ccc(Cl)cc1)Nc1ccc2nc(N3CCOCC3)ccc2c1
IC50 [1]: 961 nM

Continued by falling IC50 [1], values first:

IC50 [1]: 172 nM
SMILES: O=C(COc1ccc(C(F)(F)F)cc1)Nc1ccc2nc(N3CCOCC3)ccc2c1

IC50 [1]: 165 nM | IC50 [7]: 100 nM
SMILES: Cc1nc(N2CCCC2)nc2ccc(NC(=O)COc3ccc(C(F)(F)F)cc3)cc12

IC50 [1]: 70 nM | IC50 [7]: 101 nM
SMILES: CC(C)Nc1nc2ccc(NC(=O)COc3ccc(C(F)(F)F)cc3)cc2n1C

IC50 [1]: 40 nM | IC50 [7]: 9 nM
SMILES: Cn1c(N2CCCC2)nc2ccc(NC(=O)COc3ccc(C(F)(F)F)cc3)cc21

IC50 [1]: 35 nM | IC50 [7]: 9 nM
SMILES: O=C(COc1ccc(C(F)(F)F)cc1)Nc1ccc2nc(N3CCCC3)[nH]c2c1

inhibition (D(2) dopamine receptor [11]): 19% | inhibition [3]: 22% | inhibition [4]: 7% | IC50 [6]: 1500 nM | Inhibition (Cytochrome P450 2D6): Not Active | Inhibition (Cytochrome P450 3A4): Not Active | Inhibition (Cytochrome P450 1A2): Not Active | Inhibition (Cytochrome P450 2C9): Not Active | Inhibition (Cytochrome P450 2C19): Not Active | IC50 [1]: 25 nM | IC50 [7]: 28 nM | IC50 [12]: > 30000 nM | solubility [13]: > 1000 µg/mL | IC50 [14]: 27000 nM
SMILES: CN(C)CCN(C)c1nc2ccc(NC(=O)COc3ccc(C(F)(F)F)cc3)cc2n1C

IC50 [1]: 15 nM
SMILES: Cc1cc(N2CCCC2)nc2ccc(NC(=O)COc3ccc(C(F)(F)F)cc3)cc12
